These results are taken from article PMC8933493, “Mechanism and biomass association of glucuronoyl esterase: an α/β hydrolase with potential in biomass conversion” (Nature Communications, 2022).

Assay [1] addresses T1, OtCE15A (Opitutus terrae, UniProt B1ZMF4).
T1 construct: gene Oter_0116; His6-tag; no CBM; E. coli BL21(DE3); IMAC and size exclusion; active-site Ser267, Arg268, Glu290, Asp356, His408
Nature of the assay: continuous coupled assay, K-URONIC kit; Arrhenius analysis of kcat. It is filed as biochemical. The conditions noted are these: 20 to 40 °C in 5 °C steps.

Assay [2] has as its target T2, OtCE15A (Opitutus terrae, UniProt B1ZMF4, R268A).
T2 construct: gene Oter_0116; His6-tag; no CBM; E. coli BL21(DE3); IMAC and size exclusion; active-site Ser267, Arg268, Glu290, Asp356, His408
Nature of the assay: X-ray crystal structure after […] s soak in saturated BnzGlcA. It is filed as binding. The conditions noted are these: covalent; glucuronoyl acyl-enzyme intermediate formed from the soaked substrate; pH 6.5 crystals, 10% DMSO.

For assay [3], the target named is T1, OtCE15A. As to the kind of experiment: continuous coupled assay, K-URONIC kit (Megazyme). In kind it is biochemical. The conditions noted are these: duplicate, at least 8 substrate concentrations. The text has this: continuous coupled assay, K-URONIC kit (Megazyme) on OtCE15A

T1 sequence (B1ZMF4 entry or part of it): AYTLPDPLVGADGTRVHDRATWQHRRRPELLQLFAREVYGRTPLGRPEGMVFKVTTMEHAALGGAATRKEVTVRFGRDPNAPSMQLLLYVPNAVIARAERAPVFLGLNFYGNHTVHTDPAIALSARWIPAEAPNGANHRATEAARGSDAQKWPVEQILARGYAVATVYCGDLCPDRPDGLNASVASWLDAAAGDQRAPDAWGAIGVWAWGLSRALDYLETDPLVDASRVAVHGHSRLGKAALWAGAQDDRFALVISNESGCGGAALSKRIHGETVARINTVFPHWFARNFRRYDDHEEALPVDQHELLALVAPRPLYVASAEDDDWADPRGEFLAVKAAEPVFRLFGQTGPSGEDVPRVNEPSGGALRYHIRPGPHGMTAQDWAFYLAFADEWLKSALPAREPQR
T2 sequence (B1ZMF4 entry or part of it R268A): as the sequence (B1ZMF4 entry or part of it) above, with R236A counted along it

For `O=C(OCc1ccccc1)[C@H]1OC(O)[C@H](O)[C@@H](O)[C@@H]1O` (stereo partly drawn) [BnzGlcA, benzyl GlcA], the “continuous coupled assay, K-URONIC kit; Arrhenius analysis of kcat” value at OtCE15A [1] is on record as “small substrate benzyl GlcA (BnzGlcA) by determining kcat at different temperatures”. Further, at OtCE15A [2], the “X-ray crystal structure after 30 s soak in saturated BnzGlcA” value is recorded as “after soaking with the BnzGlcA substrate clearly shows the formation of a CI”.

Turning to `COC(=O)[C@H]1OC(O)[C@H](O)[C@@H](O)[C@@H]1O` (stereo partly drawn) [MeGlcA, GlcA methyl ester], on OtCE15A [3], the Km was 2770 ± 150 µM.
